Patent publication US11666589B2, “Pivarubicin and benzarubicin compositions” (Paradox Pharmaceuticals, Inc., priority 2020, dated 2023)

System: 32D.3 cells
Test: Analysis of apoptosis (cytochrome c release immunoblot, TUNEL)
Assay type: cell-based, murine
Settings: 5 μM for 1 hour
Experimental: Detection of DNA fragmentation in apoptotic cells by the TUNEL assay and immunoblot analyses of cytochrome c release were performed as described previously.
Once distributed into microsomal membranes, pivarubicin triggered rapid, mitochondrial-dependent apoptosis that was independent of cell cycle arrest. Marked release of cytochrome c into the cytosol as an indicator of mitochondrial depolarization and dysfunction is detected within 5 hours of drug treatment, while DNA fragmentation, as detected by TUNEL staining, is abundant by 6 hours.
In a study of Cytochrome c (Cyt C) release by pivarubicin (PIV) and control (C), 32D.3 cells were exposed to 5 μM pivarubicin for 1 hour, then incubated in drug-free medium for an additional 4 hours. Cells were then fractionated to isolate the cytosolic fraction, subjected to immunoblotting and treated with anti-cytochrome c monoclonal antibody (1:250) for 2 hours, followed by a 1-hour treatment with 1:1000 dilution of horseradish peroxidase-conjugated goat anti-mouse second antibody as described previously. Proteins were detected by chemiluminescence (FIG. 3A). […] Individual fields of cells were detected for both DNA 3′-end labeling (green: grayscale image in FIG. 3D) or total cellular DNA staining by propidium iodide (red: grayscale images in FIGS. 3C and 3E). […]

COc1cccc2c1C(=O)c1c(O)c3c(c(O)c1C2=O)C[C@@](O)(C(=O)COC(=O)C(C)(C)C)C[C@@H]3O[C@H]1C[C@H](NCc2ccccc2)[C@H](O)[C@H](C)O1 [Pivarubicin, N-Benzyladriamycin-14-pivalate]
time to marked release of cytochrome c into the cytosol (then drug-free medium): ≤ 5 h
DNA fragmentation detected by TUNEL staining (by 6 hours): abundant
